{"source": "patent US6821972B2", "about": "“3-heterocyclylpropanohydroxamic acid PCP inhibitors” (Pfizer Inc., priority 2001, dated 2004)", "origin": "cited, not measured here", "molecules": {"B1": {"name": "α2-Macroglobulin: \"α2-Macroglobulin, ovostatin, and fetal bovine serum appear to at least partially inhibit PCP activity\" (protein, UniProt P01023 24-1474, looked up)", "Alpha-2-macroglobulin": "SVSGKPQYMVLVPSLLHTETTEKGCVLLSYLNETVTVSASLESVRGNRSLFTDLEAENDVLHCVAFAVPKSSSNEEVMFLTVQVKGPTQEFKKRTTVMVKNEDSLVFVQTDKSIYKPGQTVKFRVVSMDENFHPLNELIPLVYIQDPKGNRIAQWQSFQLEGGLKQFSFPLSSEPFQGSYKVVVQKKSGGRTEHPFTVEEFVLPKFEVQVTVPKIITILEEEMNVSVCGLYTYGKPVPGHVTVSICRKYSDASDCHGEDSQAFCEKFSGQLNSHGCFYQQVKTKVFQLKRKEYEMKLHTEAQIQEEGTVVELTGRQSSEITRTITKLSFVKVDSHFRQGIPFFGQVRLVDGKGVPIPNKVIFIRGNEANYYSNATTDEHGLVQFSINTTNVMGTSLTVRVNYKDRSPCYGYQWVSEEHEEAHHTAYLVFSPSKSFVHLEPMSHELPCGHTQTVQAHYILNGGTLLGLKKLSFYYLIMAKGGIVRTGTHGLLVKQEDMKGHFSISIPVKSDIAPVARLLIYAVLPTGDVIGDSAKYDVENCLANKVDLSFSPSQSLPASHAHLRVTAAPQSVCALRAVDQSVLLMKPDAELSASSVYNLLPEKDLTGFPGPLNDQDNEDCINRHNVYINGITYTPVSSTNEKDMYSFLEDMGLKAFTNSKIRKPKMCPQLQQYEMHGPEGLRVGFYESDVMGRGHARLVHVEEPHTETVRKYFPETWIWDLVVVNSAGVAEVGVTVPDTITEWKAGAFCLSEDAGLGISSTASLRAFQPFFVELTMPYSVIRGEAFTLKATVLNYLPKCIRVSVQLEASPAFLAVPVEKEQAPHCICANGRQTVSWAVTPKSLGNVNFTVSAEALESQELCGTEVPSVPEHGRKDTVIKPLLVEPEGLEKETTFNSLLCPSGGEVSEELSLKLPPNVVEESARASVSVLGDILGSAMQNTQNLLQMPYGCGEQNMVLFAPNIYVLDYLNETQQLTPEIKSKAIGYLNTGYQRQLNYKHYDGSYSTFGERYGRNQGNTWLTAFVLKTFAQARAYIFIDEAHITQALIWLSQRQKDNGCFRSSGSLLNNAIKGGVEDEVTLSAYITIALLEIPLTVTHPVVRNALFCLESAWKTAQEGDHGSHVYTKALLAYAFALAGNQDKRKEVLKSLNEEAVKKDNSVHWERPQKPKAPVGHFYEPQAPSAEVEMTSYVLLAYLTAQPAPTSEDLTSATNIVKWITKQQNAQGGFSSTQDTVVALHALSKYGAATFTRTGKAAQVTIQSSGTFSSKFQVDNNNRLLLQQVSLPELPGEYSMKVTGEGCVYLQTSLKYNILPEKEEFPFALGVQTLPQTCDEPKAHTSFQISLSVSYTGSRSASNMAIVDVKMVSGFIPLKPTVKMLERSNHVSRTEVSSNHVLIYLDKVSNQTLSLFFTVLQDVPVRDLKPAIVKVYDYYETDEFAIAEYNAPCSKDLGNA"}, "B2": {"name": "ovostatin: \"α2-Macroglobulin, ovostatin, and fetal bovine serum appear to at least partially inhibit PCP activity\" (protein, UniProt P20740 37-1473, looked up)", "Ovostatin": "KEPEPQYVLMVPAVLQSDSPSQVCLQFFNLNQTISVRVVLEYDTINTTIFEKNTTTSNGLQCLNFMIPPVTSVSLAFISFTAKGTTFDLKERRSVMIWNMESFVFVQTDKPIYKPGQSVMFRVVALDFNFKPVQEMYPLIAVQDPQNNRIFQWQNVTSEINIVQIEFPLTEEPILGNYKIIVTKKSGERTSHSFLVEEYVLPKFDVTVTAPGSLTVMDSELTVKICAVYTYGQPVEGKVQLSVCRDFDSYGRCKKSPVCQSFTKDLDTDGCLSHILSSKVFELNRIGYKRNLDVKAIVTEKEQVCNLTATQSISITQVMSSLQFENVDHHYRRGIPYFGQIKLVDKDNSPISNKVIQLFVNNKNTHNFTTDINGIAPFSIDTSKIFDPELSLKALYKTSDQCHSEGWIEPSYPDASLSVQRLYSWTSSFVRIEPLWKDMSCGQKRMITVYYILNTEGYEHINIVNFYYVGMAKGKIVLTGEIKVNIQADQNGTFMIPLVVNEKMAPALRLLVYMLHPAKELVADSVRFSIEKCFKNKVQLQFSEKQMLTTSNVSLVIEAAANSFCAVRAVDKSMLLLKSETELSAETIYNLHPIQDLQGYIFNGLNLEDDPQDPCVSSDDIFHKGLYYRPLTSGLGPDVYQFLRDMGMKFFTNSKIRQPTVCTRETVRPPSYFLNAGFTASTHHVKLSAEVAREERGKRHILETIREFFPETWIWDIILINSTGKASVSYTIPDTITEWKASAFCVEELAGFGMSVPATLTAFQPFFVDLTLPYSIIHGEDFLVRANVFNYLNHCIKINVLLLESLDYQAKLISPEDDGCVCAKIRKSYVWNIFPKGTGDVLFSITAETNDDEACEEEALRNIRIDYRDTQIRALLVEPEGIRREETQNFLICMKDDVISQDVAIDLPTNVVEGSPRPSFSVVGDIMGTAIQNVHQLLQMPFGNGEQNMVLFAPNIYVLDYLDKTRQLSEDVKSKTIGYLVSGYQKQLSYKHPDGSYSTFGIRDKEGNTWLTAFVYKSFAEASRFIYIDDNVQAQTLIWLATKQKTDGCFQSTGILVNNAMKGGVENELSLSAYITIALLEAGHSMSHTVIRNAFYCLETASEKNITDIYTQALVAYAFCLAGKAEICESFLRELQKSAKEVDGSKYWEQNQRSAPEKSHLLDHVQSTDVEITSYVLLALLYKPNRSQEDLTKASAIVQWIIRQQNSYGGFASMQDTVVALQALAAYGAATYNSVTQNVIKINSKNTFEKVFTVNNENRLLLQQTPLPQVPGKYSLTVNGTGCVLIQTALRYNIHLPEGAFGFSLSVQTSNASCPRDQPGKFDIVLISSYTGKRSSSNMVIIDVKMLSGFVPVKSSLDQLIDDHTVMQVEYKKNHVLLYLGNILQKRRKEVTFSVEQDFVVTHPKPAPVQIYDYYETEEYAVAEYMSLCRGVVEEMG"}}, "key": {"[1]": {"system": "PCP"}, "[2]": {"system": "endothelial cell invasion of basement membrane"}, "[3]": {"system": "keratinocyte migration", "conditions": "collagen type I matrix, in vitro"}}, "note": "Non-standard residues stand in square brackets, D forms with d. Residues, ends and D or L forms follow the SMILES beside them. *: point of attachment. Sta = CC(C)C[C@H](N)[C@@H](O)CC(=O)O; Isovaleryl = CC(C)CC(=O)*", "data": [{"molecule": "phosphate", "values": [{"measurement": "inhibitory to PCP at concentrations of 1-10 mM", "setting": "[1]", "value": "inhibitory"}]}, {"molecule": "O[C@H](CS)[C@H](O)CS", "note": "(racemic) [Dithiothreitol, reference compound]", "values": [{"measurement": "inhibitory to PCP at low concentrations", "setting": "[1]", "value": "inhibitory at low concentrations"}]}, {"molecule": "CCCCCCCCCCCCOS(=O)(=O)[O-].[Na+]", "note": "[SDS, reference compound]", "values": [{"measurement": "inhibitory to PCP at low concentrations", "setting": "[1]", "value": "inhibitory at low concentrations"}]}, {"molecule": "NCCCC[C@H](N)C(=O)O", "note": "[lysine]", "values": [{"measurement": "inhibition of PCP (in words)", "setting": "[1]", "value": "inhibited"}]}, {"molecule": "concanavalin A", "values": [{"measurement": "inhibitory to PCP at low concentrations", "setting": "[1]", "value": "inhibitory at low concentrations"}]}, {"molecule": "Tris-HCl", "values": [{"measurement": "inhibition of PCP activity by buffer", "setting": "[1]; 0.2-0.5M", "value": "markedly inhibited activity"}]}, {"molecule": "N=C(N)NCCC[C@H](N)C(=O)O", "note": "[arginine]", "values": [{"measurement": "inhibition of PCP (in words)", "setting": "[1]", "value": "inhibited"}]}, {"molecule": "CC(C)C[C@H](NC(=O)[C@@H](NC(=O)N[C@@H](Cc1ccccc1)C(=O)O)[C@@H]1CCN=C(N)N1)C(=O)N[C@H](C=O)Cc1ccccc1", "note": "[chymostatin, reference compound]", "values": [{"measurement": "inhibition of PCP (in words)", "setting": "[1]", "value": "relatively strong inhibitors"}]}, {"molecule": "CNC(=O)[C@H](Cc1ccccc1)NC(=O)[C@H](CC(C)C)[C@H](CSc1cccs1)C(=O)NO", "note": "[BB94, (2S,3R)-5-methyl-3-{[(1S)-1-(methylcarbamoyl)-2-phenylethyl]carbamoyl}-2-[(2-thienylthio)methyl]hexanohydroxamic acid]", "values": [{"measurement": "inhibition of endothelial cell invasion", "setting": "[2]", "value": "inhibits endothelial cell invasion of basement membrane"}]}, {"molecule": "CNC(=O)[C@H](Cc1ccc(OC)cc1)NC(=O)[C@@H](CC(=O)NO)CC(C)C", "note": "[SC44463]", "values": [{"measurement": "inhibition of keratinocyte migration", "setting": "[3]", "value": "completely inhibited"}]}, {"molecule": "N.N.O=S(=O)(O)O", "note": "[ammonium sulfate]", "values": [{"measurement": "inhibitory to PCP at concentrations of 1-10 mM", "setting": "[1]", "value": "inhibitory"}]}, {"molecule": "CC(C)CC(=O)N[C@H](C(=O)N[C@H](C(=O)N[C@@H](CC(C)C)[C@@H](O)CC(=O)N[C@@H](C)C(=O)N[C@@H](CC(C)C)[C@@H](O)CC(=O)O)C(C)C)C(C)C", "note": "[pepstatin A, reference compound] (Isovaleryl-VV[Sta]A[Sta]-OH)", "values": [{"measurement": "inhibition of PCP (in words)", "setting": "[1]", "value": "relatively strong inhibitors"}]}, {"molecule": "B1", "values": [{"measurement": "inhibition of PCP (in words)", "setting": "[1]", "value": "at least partially inhibit"}]}, {"molecule": "B2", "values": [{"measurement": "inhibition of PCP (in words)", "setting": "[1]", "value": "at least partially inhibit"}]}]}
